The NIST ThermoML archive (doi:10.1021/je900124n)
Several values for one entry are separate records, joined by “and”; a condition that tells them apart may be missing. Equal values may be shown once.

Conditions: Fluid (supercritical or subcritical phases), Buoyancy - hydrostatic balance with magnetic suspension - two sinkers

CCC [propane]
Conditions | mass density
369.93 K, 4255.2 kPa | 244.584 kg/m3 and 244.7 kg/m3
369.95 K, 4248.2 kPa | 177.636 kg/m3
369.95 K, 4248.3 kPa | 177.67 kg/m3 and 177.631 kg/m3 and 177.707 kg/m3
369.95 K, 4248.4 kPa | 177.657 kg/m3
369.95 K, 4255.7 kPa | 214.994 kg/m3 and 214.812 kg/m3 and 213.928 kg/m3
369.95 K, 4255.8 kPa | 214.794 kg/m3 and 214.471 kg/m3
369.95 K, 4256.2 kPa | 231.389 kg/m3
369.95 K, 4256.3 kPa | 231.791 kg/m3 and 231.342 kg/m3
369.95 K, 4256.4 kPa | 233.445 kg/m3 and 231.817 kg/m3
369.95 K, 4268 kPa | 265.209 kg/m3 and 265.217 kg/m3 and 265.193 kg/m3
369.95 K, 4268.2 kPa | 265.233 kg/m3
369.96 K, 4268.2 kPa | 265.215 kg/m3
370.03 K, 4259.9 kPa | 197.023 kg/m3 and 197.111 kg/m3 and 197.064 kg/m3
370.03 K, 4260 kPa | 197.186 kg/m3 [middle of 4 runs]
370.03 K, 4260.1 kPa | 197.3 kg/m3
370.03 K, 4261.6 kPa | 225.827 kg/m3 and 225.421 kg/m3 and 225.472 kg/m3
370.03 K, 4261.7 kPa | 225.904 kg/m3 and 225.809 kg/m3 and 225.73 kg/m3
370.03 K, 4261.8 kPa | 225.954 kg/m3 and 225.938 kg/m3
370.03 K, 4263.3 kPa | 244.173 kg/m3 and 244.096 kg/m3
370.03 K, 4263.4 kPa | 244.149 kg/m3 and 244.214 kg/m3
370.03 K, 4263.5 kPa | 244.309 kg/m3 and 244.177 kg/m3 and 244.274 kg/m3
370.03 K, 4263.6 kPa | 244.294 kg/m3
370.05 K, 4254.8 kPa | 177.712 kg/m3 and 177.662 kg/m3
370.05 K, 4254.9 kPa | 177.695 kg/m3 and 177.74 kg/m3 and 177.673 kg/m3
370.05 K, 4263.2 kPa | 211.406 kg/m3 and 211.212 kg/m3
370.05 K, 4263.4 kPa | 211.466 kg/m3 and 212.306 kg/m3 and 211.429 kg/m3
370.05 K, 4264.2 kPa | 229.256 kg/m3 and 228.799 kg/m3
370.05 K, 4264.3 kPa | 229.262 kg/m3 and 229.062 kg/m3
370.05 K, 4277.5 kPa | 265.204 kg/m3 [middle of 4 runs]
370.05 K, 4277.6 kPa | 265.242 kg/m3
370.06 K, 4264.4 kPa | 229.28 kg/m3
370.32 K, 4281.1 kPa | 196.636 kg/m3
370.32 K, 4281.2 kPa | 196.743 kg/m3 and 196.797 kg/m3 and 196.727 kg/m3
370.32 K, 4281.3 kPa | 196.729 kg/m3
370.33 K, 4212.1 kPa | 146.689 kg/m3 and 146.681 kg/m3
370.33 K, 4212.2 kPa | 146.684 kg/m3 [middle of 5 runs]
370.33 K, 4281.2 kPa | 196.669 kg/m3
370.33 K, 4281.3 kPa | 197.033 kg/m3 and 196.772 kg/m3
370.33 K, 4284.6 kPa | 220.89 kg/m3
370.33 K, 4284.7 kPa | 220.777 kg/m3 and 220.874 kg/m3 and 220.88 kg/m3
370.33 K, 4284.8 kPa | 221.028 kg/m3 and 221.044 kg/m3 and 221.077 kg/m3
370.33 K, 4284.9 kPa | 221.146 kg/m3
370.33 K, 4288.5 kPa | 243.759 kg/m3 and 243.744 kg/m3 and 243.764 kg/m3
370.33 K, 4288.6 kPa | 243.866 kg/m3 [middle of 5 runs]
370.35 K, 4214.3 kPa | 147.029 kg/m3 [middle of 5 runs]
370.35 K, 4274.3 kPa | 177.77 kg/m3 and 177.777 kg/m3
370.35 K, 4274.4 kPa | 177.843 kg/m3 and 177.765 kg/m3 and 177.808 kg/m3
370.35 K, 4285.7 kPa | 209.496 kg/m3 [middle of 4 runs]
370.35 K, 4285.8 kPa | 209.659 kg/m3
370.35 K, 4287.8 kPa | 228.296 kg/m3
370.35 K, 4287.9 kPa | 227.176 kg/m3 and 227.342 kg/m3
370.35 K, 4288 kPa | 227.25 kg/m3
370.35 K, 4305.9 kPa | 265.204 kg/m3
370.35 K, 4306 kPa | 265.214 kg/m3 and 265.193 kg/m3
370.35 K, 4306.1 kPa | 265.222 kg/m3
370.36 K, 4288 kPa | 227.268 kg/m3
370.36 K, 4306.1 kPa | 265.199 kg/m3
370.82 K, 4238.2 kPa | 146.893 kg/m3
